Measurements as given in publication PMC5359555, “Mechanistic and structural basis of bioengineered bovine Cathelicidin-5 with optimized therapeutic activity” (Scientific Reports, 2017).
Where “and” joins values, the source holds several entries; their conditions need not be identical. Identical values can stand only once. Where a SMILES comes first, the peptide text is derived from it.

Tests used:
[1] = system: Plasmodium falciparum strain 3D7; experiment: microbe, parasite or virus in culture; type: cell-based; details: for antimalarial activity (in words): at 10 and 30 μM
Method: Plasmodium falciparum strain 3D7 was cultured in RPMI-1640 supplemented with 25 mg/l L-Glutamine; HEPES, NaHCO3; 50 mg/l Hypoxanthin; Gentamicien; 10% human serum; and RBCs at 3% hematocrit in an atmosphere of 5% CO2, 5% O2, and 90% N2 at 37°C as previously described. The Plasmodium lactate dehydrogenase (pLDH) assay was performed to measure the parasitic growth inhibition as described elsewhere[49] with BMAP-28 and its analogues treatment. In brief, malstat reagent was added to a 96-well plate (100 μL in each well). A Plasmodium infected RBC mixture of 20 μL in each well was mixed thoroughly using a plate shaker. And then 10 μL of each 1 mg/ml diaphorase and Nitroblue tetrozolium (NBT) were added to each well. The solution in the 96-well plate was mixed properly until a brown color appears and the absorbance was measured at 650 nm under a plate reader (PowerWaveHT, BioTek Instruments, USA). The hemolytic assay was carried out as described earlier. Briefly, RBCs prepared from fresh blood (Hematocrit ~5%) were incubated for 1 h at 37 °C after addition of test peptides. Relative hemoglobin concentration in supernatants after centrifugation at 2000× g for 5 min was monitored by measuring the absorbance at 540 nm by the plate reader (PowerWaveHT, BioTek Instruments, USA). As positive control, 100% hemolysis was taken from samples in which 2% Triton X-100 was added.

B-cell lymphoma (Ramos) = type: cell-based; details: at a concentration higher than 30 μM
Method: The T-cell lymphoma (Jurkat) and B-cell lymphoma (Ramos) were cultured using RPMI-1640 medium supplemented with 10% fetal calf serum (FCS), 100 U ml^−1 penicillin and 100 μg ml^−1 streptomycin. An initial cell densities of 5 × 10^3 cells/well was uniformly maintained in a 96 well plate. The B16-F1 melanoma cells were grown in DMEM medium containing 10% FCS, 100 U ml^−1 penicillin and 100 μg ml^−1 streptomycin and 55 μM 2-mercaptoethanol. The cells were trypsinized and plated in a 96-well plate at a density of 5 × 10^3 cells/well. The cells were grown overnight at 37 °C using a 5% CO2 incubator. The cells were treated with different peptide concentration followed by cell proliferation assay. […] Fresh culture medium and cells in medium without peptide were considered as negative and positive controls for viability assay and was monitored at 24, 48 and 72 h. The Cayman MTT cell proliferation assay protocol was followed, and the absorbance were recorded at 570 nm using a microplate reader (PowerWaveHT, BioTek Instruments, USA).

[2] = system: Gram-positive and Gram-negative strains (E. coli BL21, Bacillus subtilis, Staphylococcus epidermis); type: cell-based; details: even at one order higher concentration than MIC ~2 μM
Method: The Escherichia coli strains BL21 and DH5α were obtained from Novagen and Takara Clontech, respectively. The Bacillus subtilis (3009) and Staphylococcus epidermis (12993) were purchased from NITE Biological Resource Center (NBRC, Japan). The bacterial growth procedures followed in this study were described elsewhere. The mid-log phase microbial growth (~4 × 10^7 cells/mL, 5 μL) was used for growth assay in a 96-well plate (5 replicates) at a variable peptide concentration incubated at 37 °C for 12–48 h.

B16-F1 melanoma cells = experiment: MTT cell-viability assay, B16-F1 melanoma; type: cell-based, mouse
Method: The T-cell lymphoma (Jurkat) and B-cell lymphoma (Ramos) were cultured using RPMI-1640 medium supplemented with 10% fetal calf serum (FCS), 100 U ml^−1 penicillin and 100 μg ml^−1 streptomycin. An initial cell densities of 5 × 10^3 cells/well was uniformly maintained in a 96 well plate. The B16-F1 melanoma cells were grown in DMEM medium containing 10% FCS, 100 U ml^−1 penicillin and 100 μg ml^−1 streptomycin and 55 μM 2-mercaptoethanol. The cells were trypsinized and plated in a 96-well plate at a density of 5 × 10^3 cells/well. The cells were grown overnight at 37 °C using a 5% CO2 incubator. The cells were treated with different peptide concentration followed by cell proliferation assay. The MTT assay kit (Cayman chemicals, USA) was used to measure the cell viability at a peptide concentration varying from 2 to 15 μM (in triplicate). Fresh culture medium and cells in medium without peptide were considered as negative and positive controls for viability assay and was monitored at 24, 48 and 72 h. The Cayman MTT cell proliferation assay protocol was followed, and the absorbance were recorded at 570 nm using a microplate reader (PowerWaveHT, BioTek Instruments, USA).

[3] = not given; remark: listed apart in the source
[4] = not given; remark: listed apart in the source

## C[C@@H]1CC[C@H]2[C@@H](C)C(=O)O[C@@H]3O[C@@]4(C)CC[C@@H]1[C@]32OO4 [Art, artemisinin, reference compound]
[1]; Plasmodium falciparum, 3D7, 5 μM, positive control, pLDH assay, read-out: growth inhibition (%) of P. falciparum
  inhibition at 5 µM: 100%

## CC(C)C[C@H](NC(=O)CNC(=O)CN)C(=O)N[C@@H](CCCNC(=N)N)C(=O)N[C@@H](CO)C(=O)N[C@@H](CC(C)C)C(=O)NCC(=O)N[C@@H](CCCNC(=N)N)C(=O)N[C@@H](CCCCN)C(=O)N[C@@H](C)C(=O)N[C@@H](C)C(=O)N[C@@H](CCCNC(=N)N)C(=O)N[C@@H](C)C(=O)N[C@@H](Cc1c[nH]c2ccccc12)C(=O)N[C@@H](CCCCN)C(=O)N[C@@H](CCCCN)C(=O)N[C@@H](Cc1ccc(O)cc1)C(=O)NCC(N)=O [Syn2] (H-GGLRSLGRKAARAWKKYG-NH2; N-terminus assumed)
B-cell lymphoma (Ramos)
  anticancer activity (in words): loss-of activity
[1]
  antimalarial activity (in words): very low potentiality
[2]
  antimicrobial activity (in words): loss of activity

## CC[C@H](C)[C@H](NC(=O)[C@H](CCCCN)NC(=O)[C@H](CCCNC(=N)N)NC(=O)CNC(=O)[C@H](CC(C)C)NC(=O)[C@H](CO)NC(=O)[C@H](CCCNC(=N)N)NC(=O)[C@H](CC(C)C)NC(=O)CNC(=O)CN)C(=O)N[C@@H](CC(C)C)C(=O)N[C@@H](CCCNC(=N)N)C(=O)N[C@@H](C)C(=O)N[C@@H](Cc1c[nH]c2ccccc12)C(=O)N[C@@H](CCCCN)C(=O)N[C@@H](CCCCN)C(=O)N[C@@H](Cc1ccc(O)cc1)C(=O)NCC(N)=O [BMAP-28_1–18] (H-GGLRSLGRKILRAWKKYG-NH2; N-terminus assumed)
B16-F1 melanoma cells
  concentration found to be active: ~ 30 μM
B16-F1 melanoma cells; 10 μM
  anticancer activity (in words): fairly low anticancer activity

## CC[C@H](C)[C@H](NC(=O)[C@H](CCCNC(=N)N)NC(=O)[C@@H](NC(=O)[C@@H](NC(=O)[C@@H]1CCCN1C(=O)[C@@H](NC(=O)[C@@H](NC(=O)[C@@H](NC(=O)[C@@H]1CCCN1C(=O)CNC(=O)[C@H](Cc1ccc(O)cc1)NC(=O)[C@H](CCCCN)NC(=O)[C@H](CCCCN)NC(=O)[C@H](Cc1c[nH]c2ccccc12)NC(=O)[C@H](C)NC(=O)[C@H](CCCNC(=N)N)NC(=O)[C@H](CC(C)C)NC(=O)[C@@H](NC(=O)[C@H](CCCCN)NC(=O)[C@H](CCCNC(=N)N)NC(=O)CNC(=O)[C@H](CC(C)C)NC(=O)[C@H](CO)NC(=O)[C@H](CCCNC(=N)N)NC(=O)[C@H](CC(C)C)NC(=O)CNC(=O)CN)[C@@H](C)CC)[C@@H](C)CC)[C@@H](C)CC)C(C)C)[C@@H](C)CC)[C@@H](C)CC)C(=O)NCC(=O)O (H-GGLRSLGRKILRAWKKYGPIIVPIIRIG-OH)
other
  α content: 11.1% and 11.9%
[3]
  β content: 14.3% and 21.5%
[4]
  β-sheet content: 7.1% and 25.3% and 7.5%

## CC[C@H](C)[C@H](NC(=O)[C@H](CCCCN)NC(=O)[C@H](CCCNC(=N)N)NC(=O)CN)C(=O)N[C@@H](CC(C)C)C(=O)N[C@@H](CCCNC(=N)N)C(=O)N[C@@H](C)C(=O)N[C@@H](Cc1c[nH]c2ccccc12)C(=O)N[C@@H](CCCCN)C(=O)N[C@@H](CCCCN)C(=O)N[C@@H](Cc1ccc(O)cc1)C(=O)NCC(N)=O [Syn3] (H-GRKILRAWKKYG-NH2; N-terminus assumed)
B-cell lymphoma (Ramos)
  anticancer activity (in words): loss-of activity
[1]
  antimalarial activity (in words): very low potentiality
[2]
  antimicrobial activity (in words): loss of activity
